Publication PMC8399565, “Fluorescence Cross-Correlation Spectroscopy Yields True Affinity and Binding Kinetics of Plasmodium Lactate Transport Inhibitors” (Pharmaceuticals, 2021)
“Also recorded” adds a separate entry of the source. Where two headings read alike, the source gives them in different places.

Assays:
PfFNT G107S-GFP = target: T1, PfFNT G107S-GFP (Plasmodium falciparum, UniProt O77389, G107S); test: FCCS equilibrium saturation binding to solubilized PfFNT G107S mutant
T1 construct: The DNA of full-length PfFNT from Plasmodium falciparum 3D7 was cloned as a C-terminal GFP fusion; expressed in transfected cells; intact cells for imaging, LMNG-solubilized membranes for FCCS
Method: Next, we determined inhibitor binding affinities for both PfFNT and its G107S mutant. Solubilized cell membranes containing PfFNT-GFP at a concentration of 10 nM were incubated for 1 h at ambient temperature with increasing concentrations of labeled inhibitor molecules to obtain saturation binding curves and to calculate the dissociation constant (KD) of the interactions. Equilibrium binding experiments were pipetted in biological triplicates and carried out and analyzed as described in Antoine et al..
We next performed equilibrium saturation binding assays to assess the binding of both tracers to the mutant PfFNT G107S.
A cell pellet was resuspended in 1 mL of ice-cold TBS (50 mM Tris-HCl (pH 7.4) and 150 mM NaCl) supplemented with cOmplete™ Protease Inhibitor Cocktail (cat. no 11697498001, Roche, Switzerland) and broken by sonication on ice, using an Ultrasonic homogenizer SONOPULS HD 2070 (Bandelin, Germany). Cell debris was removed by centrifugation for 5 min at 1100× g at 4 °C, and membranes were harvested from the cleared lysate by subsequent centrifugation at 21,000× g. The resulting pellet containing cellular membranes was lysed using a Dounce homogenizer. The receptor was solubilized by incubation in 1% LMNG (cat. no NG310, Anatrace, USA) or in another detergent (DDM, DM, CHAPS, CHS, LDAO) when conducting tests to determine the best solubilization conditions. The insolubilized membrane material was removed by centrifugation for 1 h at 21,000× g at 4 °C, and the supernatant was collected and directly subjected to FCCS analysis or stored at −80 °C.
(§1) FCCS measurements were conducted in 384-well glass-bottom plates (cat. no PS96B-G175, SWISSCI, Switzerland) using an Insight plate reader (Evotec Technologies, Germany) fitted with a U-Apo300 40x water immersion lens, NA 1.15 (Olympus, Japan). The 488 nm laser line of an argon-ion laser and the light of a 633 nm helium–neon laser were used for excitation. Fluorescence fluctuations were recorded for 8 s with 12 repetitions and analyzed afterward using FCS+plus Analyze 1.1P (Evotec technologies, Version 1.2.5g). FCCS analysis was carried out as described previously. Briefly, for measuring the dissociation constant (KD), a titration series of 12 dilutions was prepared, where the concentration of the lysates obtained from HEK cells expressing GFP-fusions of PfFNT WT and G107S was kept constant, and the concentration of the labeled binding partner (BH296-DY647 and BH267.meta-DY647, respectively) was varied. The IC50 values were calculated by plotting the concentration from the dual labeled complex against the concentration of the competitor titrated over a concentration range from 10 µM to 10 pM. Samples were incubated for 1 h at room temperature prior to FCCS measurements to allow the formation of drug target complexes. From the resulting IC50 values, the Ki values were obtained by application of the Cheng Prusoff equation [17]. To assess the rate constants, time-resolved measurements were carried out at different concentrations of the labeled ligand. […] All KD and IC50 values, as well as kinetic parameters, were determined from three independently repeated experiments. The figures show one representative measurement; however, the calculated KD, Ki, kon and koff values are presented as an average of the three measurements ± SD. Error bars denote ± SEM.

PfFNT wt-GFP = target: T2, PfFNT wt-GFP (Plasmodium falciparum, UniProt O77389); test: Time-resolved FCCS binding kinetics
T2 construct: The DNA of full-length PfFNT from Plasmodium falciparum 3D7 was cloned as a C-terminal GFP fusion; expressed in transfected cells; intact cells for imaging, LMNG-solubilized membranes or lysates for FCCS
Method: To complete our biophysical interaction analysis, we determined the rate constants of both labeled inhibitors to PfFNT wildtype. This is of relevance because inhibitors with similar affinities but different association and dissociation rates can show different activity profiles. […] For measuring the kinetics of direct interactions between PfFNT and the labeled inhibitor molecules, we applied the target at a concentration of 10 nM and chose ligand concentrations that exceeded the number of target molecules by […]. In this way, we ensured that throughout the course of the kinetic measurement, the depletion of free ligands remained insignificant. First, time resolved binding curves were recorded for ligand concentrations of 148, 133, 115, 100, 81, 76, 44, 25 nM (BH296) and 120, 102, 76, 74, 65, 58, 46, 32 nM (BH267.meta), respectively, to obtain kobs values (Figure 5). Then kon and koff values were calculated by linear regression. Both inhibitors bind and dissociate with equal rate constants (Table 3) and are characterized by a rapid association. Equilibrium is reached within less than 1 min at nanomolar inhibitor concentrations. To cross-validate the reliability of our kinetic determinations, we compared the KD values derived from saturation binding assays with affinities deduced from the kinetic rate constants by dividing koff by kon.
Figure 5 Kinetic studies of the fluorescent probes BH296-DY647 and BH267.meta-DY647 with PfFNT-GFP by FCCS. Time resolved measurements of the interactions were carried out to obtain kobs-values. The kobs-values were plotted versus concentrations of the fluorescent probe. The solid line represents the best linear regression, and kon and koff of both fluorescent probes were estimated from the slope and y-intercept, respectively. kon and koff values of BH296-DY647 and BH267.meta-DY647 are summarized in Table 3.
as §1

PfFNT-GFP = target: T3, PfFNT-GFP (Plasmodium falciparum, UniProt O77389); test: Live cell confocal imaging, co-localization with PfFNT-GFP in HEK293 cells; assay type: cell-based; conditions: for co-localization / membrane localization: probe after 0.05% Triton X-100 permeabilization, 0.5-5 min
T3 construct: The DNA of full-length PfFNT from Plasmodium falciparum 3D7 was cloned as a C-terminal GFP fusion; expressed in transfected cells; intact cells for imaging, LMNG-solubilized membranes or lysates for FCCS
Method: BH296-DY647 was added at a concentration of 50 nM to cultured HEK cells stably expressing PfFNT-GFP to test for co-localization of the compound with the target at the plasma membrane by confocal imaging. […] As the cytoplasmic domain of the transporter is inaccessible for the compound, we next explored possibilities to permeabilize the plasma membrane and to retain cell viability for the time of incubation. For this, we used Triton X-100 at a final concentration of 0.05%, as described previously to allow for diffusion of compounds into the cell. […] A prolonged incubation was impeded by incipient cell disintegration and membrane blebbing. We next set out to test the specificity of binding by analyzing the interaction of labeled BH296 with its unlabeled parental compound.
The confocal laser scanning microscopy was performed on an LSM 510 confocal microscope connected to an Axiovert 200M equipped with a C-Apochromat 40×/1.2 W water immersion objective (Carl Zeiss, Germany). The red fluorophore (Dy-647) was excited using a 633 nm helium–neon laser, whereas the green fluorophore (GFP) was excited using a 488 nm argon-ion laser.

[1] = fluorescent probe titrated against solubilized PfFNT G107S-GFP

T3 sequence (O77389 whole entry, the tested form may be a part): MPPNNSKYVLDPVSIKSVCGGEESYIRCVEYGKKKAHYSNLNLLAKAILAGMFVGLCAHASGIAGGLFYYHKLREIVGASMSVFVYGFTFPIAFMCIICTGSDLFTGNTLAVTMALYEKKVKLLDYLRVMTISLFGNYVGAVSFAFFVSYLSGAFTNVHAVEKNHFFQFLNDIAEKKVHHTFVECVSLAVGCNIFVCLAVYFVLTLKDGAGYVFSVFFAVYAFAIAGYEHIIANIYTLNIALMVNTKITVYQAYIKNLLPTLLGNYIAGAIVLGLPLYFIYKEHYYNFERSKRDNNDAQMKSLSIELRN
T2 sequence (O77389 whole entry, the tested form may be a part): as above
T1 sequence (O77389 whole entry G107S, the tested form may be a part): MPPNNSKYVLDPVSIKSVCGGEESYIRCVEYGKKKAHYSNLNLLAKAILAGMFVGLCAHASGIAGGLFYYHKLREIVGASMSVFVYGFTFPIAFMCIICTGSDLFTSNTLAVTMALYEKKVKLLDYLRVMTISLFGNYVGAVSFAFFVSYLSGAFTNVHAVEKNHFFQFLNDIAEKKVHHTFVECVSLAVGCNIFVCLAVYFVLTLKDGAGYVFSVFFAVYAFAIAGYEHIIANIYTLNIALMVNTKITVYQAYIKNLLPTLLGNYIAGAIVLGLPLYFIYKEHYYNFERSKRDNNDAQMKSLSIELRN

SMILES	Kd (PfFNT G107S-GFP; fluorescent probe titrated against solubilized PfFNT G107S-GFP, read-out: KD (equilibrium saturation binding))	Kd (PfFNT wt-GFP; koff divided by kon, read-out: KD (Kinetics))	co-localization / membrane localization (PfFNT-GFP)	KD (equilibrium saturation binding) (PfFNT G107S-GFP; [1])	Kd (PfFNT wt-GFP)	competition of labeled tracer binding by unlabeled compound (PfFNT-GFP; preincubation with 100 µM unlabeled compound, tracer BH296-DY647)	Kd (PfFNT G107S-GFP)	Active Receptor (%) (PfFNT G107S-GFP; fraction of PfFNT G107S-GFP involved in binding at saturation)	koff (PfFNT wt-GFP)	kon (PfFNT wt-GFP)	co-localization / binding at plasma membrane (PfFNT-GFP; 50 nM probe, absence of Triton X-100, up to 1 h)
O=C(/C=C(\O)C(F)(F)C(F)(F)F)c1cccnc1 [BH267.meta]	405 nM	112 nM	binds efficiently								
O=C(C=C(O)C(F)(F)C(F)(F)F)c1ccc(O)cc1 [BH296, 4,4,5,5,5-pentafluoro-3-hydroxy-1-(4-hydroxyphenyl)pent-2-en-1-one]				failed to bind within detection limits	113 nM	prevented binding of the labeled tracer; also recorded: completely abrogated binding					
CCN1/C(=C/C=C/C=C/C2=[N+](CC)c3ccc(S(=O)(=O)O)cc3C2(C)CCCC(=O)NCCOCCOCCOCCOCCC(=O)NCCCOc2ccc(C(=O)/C=C(\O)C(F)(F)C(F)(F)F)cn2)C(C)(C)c2cc(S(=O)(=O)[O-])ccc21 (stereo not shown) [BH267.meta-DY647]			localizes with PfFNT wildtype		112 ± 5 nM		405 nM	n.d. 100%	0.0297 s⁻¹	268000 M⁻¹ s⁻¹	
CCN1/C(=C/C=C/C=C/C2=[N+](CC)c3ccc(S(=O)(=O)O)cc3C2(C)CCCC(=O)NCCOCCOCCOCCOCCC(=O)NCCCOc2ccc(C(=O)/C=C(\O)C(F)(F)C(F)(F)F)cc2)C(C)(C)c2cc(S(=O)(=O)[O-])ccc21 (stereo not shown) [BH296-DY647]			clearly visible	no affinity above background	113 ± 2 nM		> 2000 nM		0.0311 s⁻¹	278000 M⁻¹ s⁻¹	No co-localization; also recorded: could not be observed
